Patent publication US20230085307A1, “PYRIDAZINONE COMPOUND AND HERBICIDE” (NISSAN CHEMICAL CORPORATION, priority 2019, published 2023)

Assays:
lambsquarters [1] = test: Test Example 5: herbicidal effect by foliage application, plastic box (Table 20, symbol O); assay type: in vivo, lambsquarters (Chenopodium album); details: evaluated three weeks after application
Procedure, shortened: (§1)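 Post-emergence foliar test in sterilized diluvial soil. Compound applied as water-diluted emulsion at a predetermined rate to 14-day-old plants; evaluation at three weeks.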

windgrass [2] = test: Test Example 4: herbicidal effect by soil treatment (Table 19, symbol L); assay type: in vivo, windgrass (Apera spica-venti)
Procedure, shortened: (§2)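 Scoring uses the grading scale of an earlier test, three weeks post-application. Treatment consists of spraying a diluted emulsion formulation across the surface of sterilized diluvial soil in which seeds are buried near 1.5 cm deep; boxes are kept in a greenhouse between 25° C. and 30° C.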

Chinese sprangletop = test: Test Example 3: herbicidal effect by foliage application, Wagner pot (Table 18, symbol D); assay type: in vivo, chinese sprangletop (Leptochloa chinensis); details: 320 g/ha
Procedure, shortened: (§3)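 Plants were sown in alluvial soil held under 0.1–0.5 cm standing water and grown 14 days in a greenhouse at 25–30 °C. An emulsifiable formulation, water-diluted to the set dose, was then sprayed onto the foliage, and effects were scored three weeks later using previously defined criteria.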

barnyard grass [3] = test: Test Example 3: herbicidal effect by foliage application, Wagner pot (Table 18, symbol H); assay type: in vivo, barnyard grass (Echinochloa crus-galli); details: 320 g/ha
Procedure, shortened: as §3

velvetleaf [4] = test: Test Example 5: herbicidal effect by foliage application, plastic box (Table 20, symbol M); assay type: in vivo, velvetleaf (Abutilon theophrasti); details: evaluated three weeks after application
Procedure, shortened: as §1

blackgrass [5] = test: Test Example 5: herbicidal effect by foliage application, plastic box (Table 20, symbol J); assay type: in vivo, blackgrass (Alopecurus myosuroides); details: evaluated three weeks after application
Procedure, shortened: as §1

green foxtail [6] = test: Test Example 5: herbicidal effect by foliage application, plastic box (Table 20, symbol G); assay type: in vivo, green foxtail (Setaria viridis); details: evaluated three weeks after application
Procedure, shortened: as §1

chickweed [7] = test: Test Example 5: herbicidal effect by foliage application, plastic box (Table 20, symbol P); assay type: in vivo, common chickweed (Stellaria media); details: evaluated three weeks after application
Procedure, shortened: as §1

barnyard grass [8] = test: Test Example 5: herbicidal effect by foliage application, plastic box (Table 20, symbol H); assay type: in vivo, barnyard grass (Echinochloa crus-galli); details: evaluated three weeks after application
Procedure, shortened: as §1

green foxtail [9] = test: Test Example 4: herbicidal effect by soil treatment (Table 19, symbol G); assay type: in vivo, green foxtail (Setaria viridis)
Procedure, shortened: as §2

persian speedwell [10] = test: Test Example 5: herbicidal effect by foliage application, plastic box (Table 20, symbol R); assay type: in vivo, Persian speedwell (Veronica persica); details: evaluated three weeks after application
Procedure, shortened: as §1

Italian ryegrass [11] = test: Test Example 5: herbicidal effect by foliage application, plastic box (Table 20, symbol K); assay type: in vivo, Italian ryegrass (Lolium multiflorum); details: evaluated three weeks after application
Procedure, shortened: as §1

southern crabgrass [12] = test: Test Example 4: herbicidal effect by soil treatment (Table 19, symbol F); assay type: in vivo, southern crabgrass (Digitaria ciliaris)
Procedure, shortened: as §2

wild oat [13] = test: Test Example 5: herbicidal effect by foliage application, plastic box (Table 20, symbol I); assay type: in vivo, wild oat (Avena fatua); details: evaluated three weeks after application
Procedure, shortened: as §1

redroot pigweed [14] = test: Test Example 5: herbicidal effect by foliage application, plastic box (Table 20, symbol N); assay type: in vivo, redroot pigweed (Amaranthus retroflexus); details: evaluated three weeks after application
Procedure, shortened: as §1

barnyard grass [15] = test: Test Example 4: herbicidal effect by soil treatment (Table 19, symbol H); assay type: in vivo, barnyard grass (Echinochloa crus-galli)
Procedure, shortened: as §2

persian speedwell [16] = test: Test Example 4: herbicidal effect by soil treatment (Table 19, symbol R); assay type: in vivo, Persian speedwell (Veronica persica)
Procedure, shortened: as §2

Italian ryegrass [17] = test: Test Example 4: herbicidal effect by soil treatment (Table 19, symbol K); assay type: in vivo, Italian ryegrass (Lolium multiflorum)
Procedure, shortened: as §2

rice flat sedge = test: Test Example 3: herbicidal effect by foliage application, Wagner pot (Table 18, symbol E); assay type: in vivo, rice flat sedge (Cyperus iria); details: 320 g/ha
Procedure, shortened: as §3

velvetleaf [18] = test: Test Example 4: herbicidal effect by soil treatment (Table 19, symbol M); assay type: in vivo, velvetleaf (Abutilon theophrasti)
Procedure, shortened: as §2

lambsquarters [19] = test: Test Example 4: herbicidal effect by soil treatment (Table 19, symbol O); assay type: in vivo, lambsquarters (Chenopodium album)
Procedure, shortened: as §2

windgrass [20] = test: Test Example 5: herbicidal effect by foliage application, plastic box (Table 20, symbol L); assay type: in vivo, windgrass (Apera spica-venti); details: evaluated three weeks after application
Procedure, shortened: as §1

chickweed [21] = test: Test Example 4: herbicidal effect by soil treatment (Table 19, symbol P); assay type: in vivo, common chickweed (Stellaria media)
Procedure, shortened: as §2

wild oat [22] = test: Test Example 4: herbicidal effect by soil treatment (Table 19, symbol I); assay type: in vivo, wild oat (Avena fatua)
Procedure, shortened: as §2

redroot pigweed [23] = test: Test Example 4: herbicidal effect by soil treatment (Table 19, symbol N); assay type: in vivo, redroot pigweed (Amaranthus retroflexus)
Procedure, shortened: as §2

blackgrass [24] = test: Test Example 4: herbicidal effect by soil treatment (Table 19, symbol J); assay type: in vivo, blackgrass (Alopecurus myosuroides)
Procedure, shortened: as §2

southern crabgrass [25] = test: Test Example 5: herbicidal effect by foliage application, plastic box (Table 20, symbol F); assay type: in vivo, southern crabgrass (Digitaria ciliaris); details: evaluated three weeks after application
Procedure, shortened: as §1

[26] = amount of applied herbicide 320 g/ha, foliage application after 14-day growth
[27] = amount of applied herbicide 320 g/ha

With `Cc1nn(C)c(=O)c(-c2c(-c3ccc(C#N)cc3)sc3cc(F)c(F)cc23)c1O` [5-025] the “Herbicidal effect by foliage application, O: lambsquarters” value (lambsquarters [1]; [26]) was 5 (Herbicidal rate of 90% or more (almost completely withered)), the “L: windgrass, herbicidal effect grade” value (windgrass [2]; [27]) was 0 (Herbicidal rate of 5% or less (almost no effect)) and the “herbicidal effect on Chinese sprangletop (D)” value (Chinese sprangletop) was 4 (Herbicidal rate of 70% or more and less than 90%). The “herbicidal effect on barnyard grass (H)” value (barnyard grass [3]) was 3 (Herbicidal rate of 40% or more and less than 70%), the “Herbicidal effect by foliage application, M: velvetleaf” value (velvetleaf [4]; [26]) was 5 (Herbicidal rate of 90% or more (almost completely withered)) and the “Herbicidal effect by foliage application, J: blackgrass” value (blackgrass [5]; [26]) was 1 (Herbicidal rate of 5% or more and less than 20%). For the same compound, the “Herbicidal effect by foliage application, G: green foxtail” value (green foxtail [6]; [26]) was 4 (Herbicidal rate of 70% or more and less than 90%), the “Herbicidal effect by foliage application, P: chickweed” value (chickweed [7]; [26]) was 5 (Herbicidal rate of 90% or more (almost completely withered)) and the “Herbicidal effect by foliage application, H: barnyard grass” value (barnyard grass [8]; [26]) was 1 (Herbicidal rate of 5% or more and less than 20%). For the same compound, the “G: green foxtail, herbicidal effect grade” value (green foxtail [9]; [27]) was 4 (Herbicidal rate of 70% or more and less than 90%), the “Herbicidal effect by foliage application, R: persian speedwell” value (persian speedwell [10]; [26]) was 5 (Herbicidal rate of 90% or more (almost completely withered)) and the “Herbicidal effect by foliage application, K: Italian ryegrass” value (Italian ryegrass [11]; [26]) was 1 (Herbicidal rate of 5% or more and less than 20%). For the same compound, the “F: southern crabgrass, herbicidal effect grade” value (southern crabgrass [12]; [27]) was 1 (Herbicidal rate of 5% or more and less than 20%), the “Herbicidal effect by foliage application, I: wild oat” value (wild oat [13]; [26]) was 3 (Herbicidal rate of 40% or more and less than 70%) and the “Herbicidal effect by foliage application, N: redroot pigweed” value (redroot pigweed [14]; [26]) was 5 (Herbicidal rate of 90% or more (almost completely withered)). For the same compound, the “H: barnyard grass, herbicidal effect grade” value (barnyard grass [15]; [27]) was 3 (Herbicidal rate of 40% or more and less than 70%), the “R: persian speedwell, herbicidal effect grade” value (persian speedwell [16]; [27]) was 4 (Herbicidal rate of 70% or more and less than 90%) and the “K: Italian ryegrass, herbicidal effect grade” value (Italian ryegrass [17]; [27]) was 1 (Herbicidal rate of 5% or more and less than 20%). For the same compound, the “herbicidal effect on rice flat sedge (E)” value (rice flat sedge) was 4 (Herbicidal rate of 70% or more and less than 90%), the “M: velvetleaf, herbicidal effect grade” value (velvetleaf [18]; [27]) was 3 (Herbicidal rate of 40% or more and less than 70%) and the “O: lambsquarters, herbicidal effect grade” value (lambsquarters [19]; [27]) was 5 (Herbicidal rate of 90% or more (almost completely withered)). The “Herbicidal effect by foliage application, L: windgrass” value (windgrass [20]; [26]) was 5 (Herbicidal rate of 90% or more (almost completely withered)), the “P: chickweed, herbicidal effect grade” value (chickweed [21]; [27]) was 3 (Herbicidal rate of 40% or more and less than 70%) and the “I: wild oat, herbicidal effect grade” value (wild oat [22]; [27]) was 1 (Herbicidal rate of 5% or more and less than 20%). For the same compound, the “N: redroot pigweed, herbicidal effect grade” value (redroot pigweed [23]; [27]) was 5 (Herbicidal rate of 90% or more (almost completely withered)), the “J: blackgrass, herbicidal effect grade” value (blackgrass [24]; [27]) was 0 (Herbicidal rate of 5% or less (almost no effect)) and the “Herbicidal effect by foliage application, F: southern crabgrass” value (southern crabgrass [25]; [26]) was 3 (Herbicidal rate of 40% or more and less than 70%).

With `CON=C(C)COc1ccc(-c2sc3ccc(F)cc3c2-c2c(O)c(C)nn(C)c2=O)cc1` [2-069] the “herbicidal effect on O: lambsquarters” value (lambsquarters [1]; foliage application, 320 g/ha) was 5 (Herbicidal rate of 90% or more (almost completely withered)), the “herbicidal effect rating, L: windgrass” value (windgrass [2]; 320 g/ha) was 0 (Herbicidal rate of 5% or less (almost no effect)) and the “herbicidal effect on D (Chinese sprangletop), rating 0-5” value (Chinese sprangletop) was 4 (Herbicidal rate of 70% or more and less than 90%). The “herbicidal effect on H (barnyard grass), rating 0-5” value (barnyard grass [3]) was 5 (Herbicidal rate of 90% or more (almost completely withered)), the “herbicidal effect on M: velvetleaf” value (velvetleaf [4]; foliage application, 320 g/ha) was 5 (Herbicidal rate of 90% or more (almost completely withered)) and the “herbicidal effect on J: blackgrass” value (blackgrass [5]; foliage application, 320 g/ha) was 5 (Herbicidal rate of 90% or more (almost completely withered)). For the same compound, the “herbicidal effect on G: green foxtail” value (green foxtail [6]; foliage application, 320 g/ha) was 5 (Herbicidal rate of 90% or more (almost completely withered)), the “herbicidal effect on P: chickweed” value (chickweed [7]; foliage application, 320 g/ha) was 5 (Herbicidal rate of 90% or more (almost completely withered)) and the “herbicidal effect on H: barnyard grass” value (barnyard grass [8]; foliage application, 320 g/ha) was 5 (Herbicidal rate of 90% or more (almost completely withered)). For the same compound, the “herbicidal effect rating, G: green foxtail” value (green foxtail [9]; 320 g/ha) was 5 (Herbicidal rate of 90% or more (almost completely withered)), the “herbicidal effect on R: persian speedwell” value (persian speedwell [10]; foliage application, 320 g/ha) was 5 (Herbicidal rate of 90% or more (almost completely withered)) and the “herbicidal effect on K: Italian ryegrass” value (Italian ryegrass [11]; foliage application, 320 g/ha) was 5 (Herbicidal rate of 90% or more (almost completely withered)). The “herbicidal effect rating, F: southern crabgrass” value (southern crabgrass [12]; 320 g/ha) was 5 (Herbicidal rate of 90% or more (almost completely withered)), the “herbicidal effect on I: wild oat” value (wild oat [13]; foliage application, 320 g/ha) was 2 (Herbicidal rate of 20% or more and less than 40%) and the “herbicidal effect on N: redroot pigweed” value (redroot pigweed [14]; foliage application, 320 g/ha) was 5 (Herbicidal rate of 90% or more (almost completely withered)). The “herbicidal effect rating, H: barnyard grass” value (barnyard grass [15]; 320 g/ha) was 5 (Herbicidal rate of 90% or more (almost completely withered)), the “herbicidal effect rating, R: persian speedwell” value (persian speedwell [16]; 320 g/ha) was 5 (Herbicidal rate of 90% or more (almost completely withered)) and the “herbicidal effect rating, K: Italian ryegrass” value (Italian ryegrass [17]; 320 g/ha) was 5 (Herbicidal rate of 90% or more (almost completely withered)). The “herbicidal effect on E (rice flat sedge), rating 0-5” value (rice flat sedge) was 5 (Herbicidal rate of 90% or more (almost completely withered)), the “herbicidal effect rating, M: velvetleaf” value (velvetleaf [18]; 320 g/ha) was 3 (Herbicidal rate of 40% or more and less than 70%) and the “herbicidal effect rating, O: lambsquarters” value (lambsquarters [19]; 320 g/ha) was 5 (Herbicidal rate of 90% or more (almost completely withered)). The “herbicidal effect on L: windgrass” value (windgrass [20]; foliage application, 320 g/ha) was 5 (Herbicidal rate of 90% or more (almost completely withered)), the “herbicidal effect rating, P: chickweed” value (chickweed [21]; 320 g/ha) was 4 (Herbicidal rate of 70% or more and less than 90%) and the “herbicidal effect rating, I: wild oat” value (wild oat [22]; 320 g/ha) was 0 (Herbicidal rate of 5% or less (almost no effect)). For the same compound, the “herbicidal effect rating, N: redroot pigweed” value (redroot pigweed [23]; 320 g/ha) was 5 (Herbicidal rate of 90% or more (almost completely withered)), the “herbicidal effect rating, J: blackgrass” value (blackgrass [24]; 320 g/ha) was 0 (Herbicidal rate of 5% or less (almost no effect)) and the “herbicidal effect on F: southern crabgrass” value (southern crabgrass [25]; foliage application, 320 g/ha) was 5 (Herbicidal rate of 90% or more (almost completely withered)).
